# Active and inactive are the calls of the source. The calls are words filed in the database; no cut-off is given here.
# How the values were obtained:
# [1] = Toxicity in CB-17/SCID mouse bearing late stage of TPPRC assessed as effect on body weight at 25 to 50 mg/kg, iv measured after 21 days; format: organism-based; conditions: in vivo, 504 h, dose 25-50 mg/kg, time 21 day
# [2] = target: T1, Protein cereblon/Signal transducer and activator of transcription 3 (Homo sapiens) (UniProt P40763+Q96SW2); test: PROTAC activity at CRBN/STAT3 in human KARPAS-299 cells assessed as induction of STAT3 degradation at 5 uM measured after 3 hrs; format: cell-based
# [3] = target: T1, Protein cereblon/Signal transducer and activator of transcription 3 (Homo sapiens); test: PROTAC activity at CRBN/STAT3 in human MOLM16 cells assessed as induction of STAT3 degradation at 5 uM measured after 3 hrs; format: cell-based
# [4] = target: T1, Protein cereblon/Signal transducer and activator of transcription 3 (Homo sapiens); test: PROTAC activity at CRBN/STAT3 in human SUPM2 cells assessed as induction of STAT3 degradation at 5 uM measured after 3 hrs; format: cell-based
# [5] = target: T1, Protein cereblon/Signal transducer and activator of transcription 3 (Homo sapiens); test: PROTAC activity at CRBN/STAT3 in human DB cells assessed as induction of STAT3 degradation at 5 uM measured after 3 hrs; format: cell-based
# [6] = target: T1, Protein cereblon/Signal transducer and activator of transcription 3 (Homo sapiens); test: PROTAC activity at CRBN/STAT3 in human SU-DHL-4 cells assessed as induction of STAT3 degradation at 5 uM measured after 3 hrs; format: cell-based
# [7] = target: T1, Protein cereblon/Signal transducer and activator of transcription 3 (Homo sapiens); test: PROTAC activity at CRBN/STAT3 in human Pfeiffer cells assessed as induction of STAT3 degradation at 5 uM measured after 3 hrs; format: cell-based
# [8] = target: T2, Protein cereblon/Signal transducer and activator of transcription 1-alpha/beta (Homo sapiens) (UniProt P42224+Q96SW2); test: PROTAC activity at CRBN/STAT1 in human KARPAS-299 cells assessed as induction of STAT1 degradation at 5 to 10 uM measured after 24 hrs; format: cell-based; conditions: dose 5-10 µM
# [9] = target: T2, Protein cereblon/Signal transducer and activator of transcription 1-alpha/beta (Homo sapiens); test: PROTAC activity at CRBN/STAT1 in human DB cells assessed as induction of STAT1 degradation at 5 to 10 uM measured after 24 hrs; format: cell-based; conditions: dose 5-10 µM
# [10] = target: T3, Protein cereblon/Signal transducer and activator of transcription 2 (Homo sapiens) (UniProt Q96SW2+P52630); test: PROTAC activity at CRBN/STAT2 in human KARPAS-299 cells assessed as induction of STAT2 degradation at 5 to 10 uM measured after 24 hrs; format: cell-based; conditions: dose 5-10 µM
# [11] = target: T3, Protein cereblon/Signal transducer and activator of transcription 2 (Homo sapiens); test: PROTAC activity at CRBN/STAT2 in human DB cells assessed as induction of STAT2 degradation at 5 to 10 uM measured after 24 hrs; format: cell-based; conditions: dose 5-10 µM
# [12] = target: T4, Protein cereblon/Signal transducer and activator of transcription 5A (Homo sapiens) (UniProt P42229+Q96SW2); test: PROTAC activity at CRBN/STAT5A in human KARPAS-299 cells assessed as induction of STAT5A degradation at 5 to 10 uM measured after 24 hrs; format: cell-based; conditions: dose 5-10 µM
# [13] = target: T4, Protein cereblon/Signal transducer and activator of transcription 5A (Homo sapiens); test: PROTAC activity at CRBN/STAT5A in human DB cells assessed as induction of STAT5A degradation at 5 to 10 uM measured after 24 hrs; format: cell-based; conditions: dose 5-10 µM
# [14] = target: T5, Protein cereblon/Signal transducer and activator of transcription 5B (Homo sapiens) (UniProt P51692+Q96SW2); test: PROTAC activity at CRBN/STAT5B in human KARPAS-299 cells assessed as induction of STAT5B degradation at 5 to 10 uM measured after 24 hrs; format: cell-based; conditions: dose 5-10 µM
# [15] = target: T5, Protein cereblon/Signal transducer and activator of transcription 5B (Homo sapiens); test: PROTAC activity at CRBN/STAT5B in human DB cells assessed as induction of STAT5B degradation at 5 to 10 uM measured after 24 hrs; format: cell-based; conditions: dose 5-10 µM
# [16] = target: T6, Protein cereblon/Signal transducer and activator of transcription 6 (Homo sapiens) (UniProt P42226+Q96SW2); test: PROTAC activity at CRBN/STAT6 in human KARPAS-299 cells assessed as induction of STAT6 degradation at 5 to 10 uM measured after 24 hrs; format: cell-based; conditions: dose 5-10 µM
# [17] = target: T6, Protein cereblon/Signal transducer and activator of transcription 6 (Homo sapiens); test: PROTAC activity at CRBN/STAT6 in human DB cells assessed as induction of STAT6 degradation at 5 to 10 uM measured after 24 hrs; format: cell-based; conditions: dose 5-10 µM
# [18] = target: T1, Protein cereblon/Signal transducer and activator of transcription 3 (Homo sapiens); test: PROTAC activity at CRBN/STAT3 in human KARPAS-299 cells assessed as induction of STAT3 degradation at 5 to 10 uM measured after 24 hrs; format: cell-based; conditions: dose 5-10 µM
# [19] = target: T1, Protein cereblon/Signal transducer and activator of transcription 3 (Homo sapiens); test: PROTAC activity at CRBN/STAT3 in human DB cells assessed as induction of STAT3 degradation at 5 to 10 uM measured after 24 hrs; format: cell-based; conditions: dose 5-10 µM
# [20] = target: T1, Protein cereblon/Signal transducer and activator of transcription 3 (Homo sapiens); test: PROTAC activity at CRBN/STAT3 in human KARPAS-299 cells assessed as fold change in STAT3 degradation at 5 uM measured after 24 hrs; format: cell-based
# [21] = target: T1, Protein cereblon/Signal transducer and activator of transcription 3 (Homo sapiens); test: PROTAC activity at CRBN/STAT3 in human DB cells assessed as fold change in STAT3 degradation at 5 uM measured after 24 hrs; format: cell-based
# [22] = target: T1, Protein cereblon/Signal transducer and activator of transcription 3 (Homo sapiens); test: PROTAC activity at CRBN/STAT3 in human SU-DHL-4 cells assessed as fold change in STAT3 degradation at 5 uM measured after 24 hrs; format: cell-based
# [23] = target: T1, Protein cereblon/Signal transducer and activator of transcription 3 (Homo sapiens); test: PROTAC activity at CRBN/STAT3 in human Pfeiffer cells assessed as fold change in STAT3 degradation at 5 uM measured after 24 hrs; format: cell-based
# [24] = target: T1, Protein cereblon/Signal transducer and activator of transcription 3 (Homo sapiens); test: PROTAC activity at CRBN/STAT3 in human MOLM16 cells assessed as fold change in STAT3 degradation at 5 uM measured after 24 hrs; format: cell-based
# [25] = target: T1, Protein cereblon/Signal transducer and activator of transcription 3 (Homo sapiens); test: PROTAC activity at CRBN/STAT3 in human SUPM2 cells assessed as fold change in STAT3 degradation at 5 uM measured after 24 hrs; format: cell-based
# [26] = test system: KARPAS-299; test: Downregulation of PCLAF expression in human KARPAS-299 at 5 to 10 uM measured after 24 hrs; format: functional, cell-based; conditions: dose 5-10 µM
# [27] = test system: MOLM-16; test: Downregulation of PCLAF expression in human MOLM16 at 5 to 10 uM measured after 24 hrs; format: functional, cell-based; conditions: dose 5-10 µM
# [28] = test system: SUP-M2; test: Downregulation of PCLAF expression in human SUPM2 at 5 to 10 uM measured after 24 hrs; format: functional, cell-based; conditions: dose 5-10 µM
# [29] = test system: DB; test: Downregulation of PCLAF expression in human DB at 5 to 10 uM measured after 24 hrs; format: functional, cell-based; conditions: dose 5-10 µM
# [30] = test system: SUD4; test: Downregulation of PCLAF expression in human SU-DHL-4 at 5 to 10 uM measured after 24 hrs; format: functional, cell-based; conditions: dose 5-10 µM
# [31] = test system: Pfeiffer; test: Downregulation of PCLAF expression in human Pfeiffer at 5 to 10 uM measured after 24 hrs; format: functional, cell-based; conditions: dose 5-10 µM
# [32] = test system: KARPAS-299; test: Downregulation of NOP53 expression in human KARPAS-299 at 5 to 10 uM measured after 24 hrs; format: functional, cell-based; conditions: dose 5-10 µM
# [33] = test system: MOLM-16; test: Downregulation of NOP53 expression in human MOLM16 at 5 to 10 uM measured after 24 hrs; format: functional, cell-based; conditions: dose 5-10 µM
# [34] = test system: SUP-M2; test: Downregulation of NOP53 expression in human SUPM2 at 5 to 10 uM measured after 24 hrs; format: functional, cell-based; conditions: dose 5-10 µM
# [35] = test system: DB; test: Downregulation of NOP53 expression in human DB at 5 to 10 uM measured after 24 hrs; format: functional, cell-based; conditions: dose 5-10 µM
# [36] = test system: SUD4; test: Downregulation of NOP53 expression in human SU-DHL-4 at 5 to 10 uM measured after 24 hrs; format: functional, cell-based; conditions: dose 5-10 µM
# [37] = test system: Pfeiffer; test: Downregulation of NOP53 expression in human Pfeiffer at 5 to 10 uM measured after 24 hrs; format: functional, cell-based; conditions: dose 5-10 µM
# [38] = test system: Pfeiffer; test: Cytotoxicity against human Pfeiffer cells harbouring STAT1 assessed as reduction in cell viability measured after 3 days by CCK- method; format: functional, cell-based; conditions: time 3.0 day
# [39] = test system: Pfeiffer; test: Cytotoxicity against human Pfeiffer cells harbouring STAT3 assessed as reduction in cell viability at 2 uM measured after 3 days by CCK- method; format: functional, cell-based; conditions: time 3.0 day
# [40] = test system: Pfeiffer; test: Downregulation of STAT3 expression in patient derived STAT3 high expressing human Pfeiffer cell organoids at 2 uM by Western blot analysis; format: functional, cell-based
# [41] = test system: Pfeiffer; test: Downregulation of STAT1 expression in patient derived STAT1 high expressing human Pfeiffer cell organoids at 2 uM by Western blot analysis; format: functional, cell-based
# [42] = test system: Pfeiffer; test: Downregulation of STAT3 expression in patient derived STAT3 low expressing human Pfeiffer cell organoids at 2 uM by Western blot analysis; format: functional, cell-based
# [43] = test system: Pfeiffer; test: Antitumor activity against human Pfeiffer cells xenografted in CB-17/SCID mouse model bearing late stage of TPPRC assessed as inhibition of tumor growth at 25 to 50 mg/kg, iv measured upto 21 days; format: functional, organism-based; conditions: dose 25-50 mg/kg, time <= 21.0 day
# [44] = test system: Mus musculus; test: In vivo PROTAC activity at human Pfeiffer cells xenografted in CB-17/SCID mouse model bearing late stage of TPPRC assessed as degradation of STAT3 at administered as IV dose; format: functional, organism-based; conditions: dose 25-50 mg/kg
# [45] = test system: Mus musculus; test: In vivo PROTAC activity at CRBN/STAT1 in human Pfeiffer cells xenografted in CB-17/SCID mouse model bearing middle stage of TPPRC assessed as upregulation of STAT1 by measuring fold change; format: functional
# [46] = test system: Mus musculus; test: In vivo PROTAC activity at CRBN/STAT1 in human Pfeiffer cells xenografted in CB-17/SCID mouse model bearing last stage of TPPRC assessed as upregulation of STAT1 by measuring fold change; format: functional
# T1 sequence (P40763 2-770 limits assumed): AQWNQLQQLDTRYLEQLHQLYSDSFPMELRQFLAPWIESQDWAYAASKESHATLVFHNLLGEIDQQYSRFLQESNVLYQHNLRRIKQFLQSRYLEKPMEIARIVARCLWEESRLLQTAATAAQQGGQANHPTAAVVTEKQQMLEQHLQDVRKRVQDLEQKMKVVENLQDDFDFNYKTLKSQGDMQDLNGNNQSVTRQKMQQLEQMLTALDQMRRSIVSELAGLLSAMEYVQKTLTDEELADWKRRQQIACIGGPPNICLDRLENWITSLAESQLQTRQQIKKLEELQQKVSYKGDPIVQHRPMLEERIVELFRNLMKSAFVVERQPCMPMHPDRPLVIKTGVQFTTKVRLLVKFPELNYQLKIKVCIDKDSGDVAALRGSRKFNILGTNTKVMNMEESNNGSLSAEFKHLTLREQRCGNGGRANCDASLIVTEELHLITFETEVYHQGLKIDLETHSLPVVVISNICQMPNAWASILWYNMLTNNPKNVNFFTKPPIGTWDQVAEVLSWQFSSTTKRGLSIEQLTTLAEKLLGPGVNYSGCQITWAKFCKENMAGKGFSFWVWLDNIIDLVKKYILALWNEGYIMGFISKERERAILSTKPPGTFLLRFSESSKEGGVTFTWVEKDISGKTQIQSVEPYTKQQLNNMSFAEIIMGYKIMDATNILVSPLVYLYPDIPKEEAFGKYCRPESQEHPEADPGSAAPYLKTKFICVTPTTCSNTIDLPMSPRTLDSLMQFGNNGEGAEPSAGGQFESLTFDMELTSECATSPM
# T1 sequence (Q96SW2 whole entry partner): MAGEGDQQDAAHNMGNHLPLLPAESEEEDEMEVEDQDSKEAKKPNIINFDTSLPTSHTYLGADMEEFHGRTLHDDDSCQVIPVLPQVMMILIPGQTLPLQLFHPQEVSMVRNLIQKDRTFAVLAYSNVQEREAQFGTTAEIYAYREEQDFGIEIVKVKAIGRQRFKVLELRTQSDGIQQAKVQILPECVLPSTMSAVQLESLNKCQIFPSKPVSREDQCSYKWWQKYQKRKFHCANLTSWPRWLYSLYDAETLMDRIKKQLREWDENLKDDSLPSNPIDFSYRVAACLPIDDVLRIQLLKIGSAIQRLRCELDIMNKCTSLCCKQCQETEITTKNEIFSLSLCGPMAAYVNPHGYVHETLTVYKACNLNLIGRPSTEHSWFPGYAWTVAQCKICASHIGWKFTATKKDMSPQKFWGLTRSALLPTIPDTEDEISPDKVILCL
# T6 sequence (P42226 2-847 limits assumed): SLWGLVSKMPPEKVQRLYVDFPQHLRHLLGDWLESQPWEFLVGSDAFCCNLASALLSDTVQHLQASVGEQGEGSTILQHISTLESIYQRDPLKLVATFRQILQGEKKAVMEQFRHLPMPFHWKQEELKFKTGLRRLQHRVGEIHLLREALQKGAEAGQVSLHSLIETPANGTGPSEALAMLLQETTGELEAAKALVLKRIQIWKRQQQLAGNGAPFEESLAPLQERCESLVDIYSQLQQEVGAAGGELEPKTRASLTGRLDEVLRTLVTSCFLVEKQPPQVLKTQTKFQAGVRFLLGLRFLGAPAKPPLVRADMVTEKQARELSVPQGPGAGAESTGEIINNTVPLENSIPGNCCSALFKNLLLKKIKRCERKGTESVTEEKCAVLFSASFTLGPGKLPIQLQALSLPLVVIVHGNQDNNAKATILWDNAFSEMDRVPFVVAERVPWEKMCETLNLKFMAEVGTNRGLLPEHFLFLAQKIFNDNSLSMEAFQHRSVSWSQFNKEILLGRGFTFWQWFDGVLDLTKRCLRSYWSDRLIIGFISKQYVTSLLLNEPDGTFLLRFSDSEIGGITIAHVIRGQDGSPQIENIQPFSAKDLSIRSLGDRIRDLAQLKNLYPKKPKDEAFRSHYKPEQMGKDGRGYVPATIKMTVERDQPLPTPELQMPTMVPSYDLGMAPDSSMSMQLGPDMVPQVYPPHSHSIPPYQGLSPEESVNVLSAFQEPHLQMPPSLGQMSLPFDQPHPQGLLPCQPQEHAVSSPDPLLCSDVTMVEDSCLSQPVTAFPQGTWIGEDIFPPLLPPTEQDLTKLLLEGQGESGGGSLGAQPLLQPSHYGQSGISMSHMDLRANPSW
# T6 sequence (Q96SW2 whole entry partner): as the sequence (Q96SW2 whole entry partner) above
# T5 sequence (P51692 whole entry, looked up): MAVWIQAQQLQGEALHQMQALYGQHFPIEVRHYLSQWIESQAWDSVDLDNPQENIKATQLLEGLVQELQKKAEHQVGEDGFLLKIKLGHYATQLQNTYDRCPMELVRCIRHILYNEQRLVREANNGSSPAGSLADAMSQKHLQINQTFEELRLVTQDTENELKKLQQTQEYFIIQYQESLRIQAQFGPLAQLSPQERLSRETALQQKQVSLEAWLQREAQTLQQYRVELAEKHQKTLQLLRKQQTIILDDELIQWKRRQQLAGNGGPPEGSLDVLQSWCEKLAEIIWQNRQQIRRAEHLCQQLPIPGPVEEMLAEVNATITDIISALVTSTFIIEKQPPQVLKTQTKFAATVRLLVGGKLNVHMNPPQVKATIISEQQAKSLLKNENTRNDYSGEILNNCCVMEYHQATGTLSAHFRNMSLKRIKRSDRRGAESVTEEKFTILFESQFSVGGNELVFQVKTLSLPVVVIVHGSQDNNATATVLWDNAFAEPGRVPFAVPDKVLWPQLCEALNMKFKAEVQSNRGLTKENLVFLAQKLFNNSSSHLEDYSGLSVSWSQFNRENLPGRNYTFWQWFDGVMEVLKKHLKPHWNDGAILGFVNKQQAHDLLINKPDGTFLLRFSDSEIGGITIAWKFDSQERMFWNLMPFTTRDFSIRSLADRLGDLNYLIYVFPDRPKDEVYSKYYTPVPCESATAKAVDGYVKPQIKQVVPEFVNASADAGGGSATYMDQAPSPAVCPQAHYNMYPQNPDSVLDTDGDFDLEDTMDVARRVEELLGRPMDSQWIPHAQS
# T5 sequence (Q96SW2 whole entry, looked up): as the sequence (Q96SW2 whole entry partner) above
# T4 sequence (P42229 whole entry, looked up): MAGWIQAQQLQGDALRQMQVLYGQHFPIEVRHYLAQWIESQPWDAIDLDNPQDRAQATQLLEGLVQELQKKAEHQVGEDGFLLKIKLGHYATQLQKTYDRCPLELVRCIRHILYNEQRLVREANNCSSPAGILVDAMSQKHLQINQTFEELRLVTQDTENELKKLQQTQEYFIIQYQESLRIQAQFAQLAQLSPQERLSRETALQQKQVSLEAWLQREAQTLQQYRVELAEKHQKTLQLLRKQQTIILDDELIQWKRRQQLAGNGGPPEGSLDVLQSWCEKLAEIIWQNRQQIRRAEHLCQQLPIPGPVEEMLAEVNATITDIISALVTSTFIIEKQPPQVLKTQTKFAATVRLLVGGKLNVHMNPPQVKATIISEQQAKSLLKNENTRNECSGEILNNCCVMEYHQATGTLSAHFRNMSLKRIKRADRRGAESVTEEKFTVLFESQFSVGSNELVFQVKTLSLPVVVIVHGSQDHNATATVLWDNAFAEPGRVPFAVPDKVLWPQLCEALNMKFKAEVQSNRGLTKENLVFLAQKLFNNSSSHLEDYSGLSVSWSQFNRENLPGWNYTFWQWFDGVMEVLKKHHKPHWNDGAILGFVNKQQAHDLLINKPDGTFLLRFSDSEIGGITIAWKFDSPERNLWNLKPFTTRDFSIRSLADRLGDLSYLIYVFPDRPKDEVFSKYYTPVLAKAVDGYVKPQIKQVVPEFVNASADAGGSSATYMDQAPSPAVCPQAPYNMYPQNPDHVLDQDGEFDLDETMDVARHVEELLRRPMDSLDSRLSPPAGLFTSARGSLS
# T4 sequence (Q96SW2 whole entry, looked up): as the sequence (Q96SW2 whole entry partner) above
# T3 sequence (P52630 whole entry, looked up): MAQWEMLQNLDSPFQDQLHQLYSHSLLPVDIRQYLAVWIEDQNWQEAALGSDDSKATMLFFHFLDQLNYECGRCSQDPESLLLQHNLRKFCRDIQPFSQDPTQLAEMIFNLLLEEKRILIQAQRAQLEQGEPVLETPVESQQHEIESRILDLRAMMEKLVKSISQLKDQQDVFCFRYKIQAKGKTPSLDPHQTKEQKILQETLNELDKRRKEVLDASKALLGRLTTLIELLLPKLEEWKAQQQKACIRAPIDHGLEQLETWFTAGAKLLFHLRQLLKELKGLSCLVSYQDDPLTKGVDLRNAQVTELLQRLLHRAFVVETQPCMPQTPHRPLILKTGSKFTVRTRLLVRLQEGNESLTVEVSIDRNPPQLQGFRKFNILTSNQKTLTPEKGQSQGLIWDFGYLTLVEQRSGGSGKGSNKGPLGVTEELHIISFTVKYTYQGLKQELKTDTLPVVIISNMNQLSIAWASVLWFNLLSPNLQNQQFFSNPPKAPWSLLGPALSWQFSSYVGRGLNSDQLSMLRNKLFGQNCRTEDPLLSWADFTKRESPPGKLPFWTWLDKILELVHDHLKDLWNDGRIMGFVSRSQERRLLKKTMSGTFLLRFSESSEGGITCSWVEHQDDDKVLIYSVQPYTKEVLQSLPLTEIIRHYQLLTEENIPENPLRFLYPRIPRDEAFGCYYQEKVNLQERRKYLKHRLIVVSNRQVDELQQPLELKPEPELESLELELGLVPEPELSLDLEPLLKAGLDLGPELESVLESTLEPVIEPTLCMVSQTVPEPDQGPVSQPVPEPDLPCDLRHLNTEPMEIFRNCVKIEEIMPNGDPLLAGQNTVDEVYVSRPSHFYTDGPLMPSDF
# T3 sequence (Q96SW2 whole entry, looked up): as the sequence (Q96SW2 whole entry partner) above
compound,measurement,setting,value
NC(=O)CC[C@H](NC(=O)[C@@H]1CC[C@@H]2CCN(C(=O)CCCCCC#Cc3cccc4c3CN(C3CCC(=O)NC3=O)C4=O)C[C@H](NC(=O)c3cc4cc(C(F)(F)P(=O)(O)O)ccc4[nH]3)C(=O)N21)C(=O)NC(c1ccccc1)c1ccccc1 (stereo partly specified),Activity,[1],Non-Toxic
same,Activity,[2],Active
same,Activity,[3],Active
same,Activity,[4],Active
same,Activity,[5],Active
same,Activity,[6],Active
same,Activity,[7],Active
same,Activity,[8],inactive
same,Activity,[9],inactive
same,Activity,[10],inactive
same,Activity,[11],inactive
same,Activity,[12],inactive
same,Activity,[13],inactive
same,Activity,[14],inactive
same,Activity,[15],inactive
same,Activity,[16],inactive
same,Activity,[17],inactive
same,Activity,[18],Active
same,Activity,[19],Active
same,fold change (FC),[20],0.66
same,fold change (FC),[21],0.66
same,fold change (FC),[22],0.66
same,fold change (FC),[23],0.66
same,fold change (FC),[24],0.66
same,fold change (FC),[25],0.66
same,Activity,[26],Active
same,Activity,[27],Active
same,Activity,[28],Active
same,Activity,[29],inactive
same,Activity,[30],inactive
same,Activity,[31],inactive
same,Activity,[32],Active
same,Activity,[33],Active
same,Activity,[34],Active
same,Activity,[35],inactive
same,Activity,[36],inactive
same,Activity,[37],inactive
same,Activity,[38],Active
same,Activity,[39],Active
same,Activity,[40],Active
same,Activity,[41],Active
same,Activity,[42],Active
same,Activity,[43],Active
same,Activity,[44],Dose-Dependent Effect
same,fold change (FC),[45],>3.5
same,fold change (FC),[46],>3.5
